Source: patent publication US6773721B1, “Osmotic caplet” (ALZA Corporation, priority 1992, dated 2004)

Assay: Osmotic pressure of saturated solutions by vapor pressure osmometer
Format: physicochemical
Settings: saturated solution in water at 37° C.; Model 320B Vapor Pressure Osmometer
Description: The osmagent is initially present in excess and it can be any physical form such as particle, crystal, pellet, tablet, strip, film or granule. […] In the table, the osmotic pressure π, is in atmospheres, ATM. The osmotic pressure is measured in a commercially available osmometer that measures the vapor pressure difference between pure water and the solution to be analyzed, and according to standard thermodynamic principles, the vapor pressure ratio is converted into osmotic pressure difference. […] The osmometer used for the present measurements is identified as Model 320B, Vapor Pressure Osmometer, manufactured by Hewlett Packard Co., Avondale, Pa.

Molecule | OSMOTIC PRESSURE [ATM]
[Cl-].[K+] [Potassium Chloride] | 245
O.O.O.O.O.O.O.O.O.O.O.O.O=P([O-])([O-])O.[Na+].[Na+] [Sodium Phosphate Dibasic.12H2O] | 31
OC[C@@H](O)[C@@H](O)[C@H](O)[C@H](O)CO [Mannitol] | 38
O=C(CO)[C@@H](O)[C@H](O)[C@H](O)CO [Fructose] | 355
O=P([O-])([O-])O.[Na+].[Na+] [Sodium Phosphate Dibasic Anhydrous] | 29
Sodium Phosphate Monobasic.H2O | 28
O=S(=O)([O-])[O-].[K+].[K+] [Potassium Sulfate] | 39
[Cl-].[Na+] [Sodium Chloride] | 356
O.O.O.O.O.O.O.O.O.O.O.O.O=P([O-])([O-])[O-].[Na+].[Na+].[Na+] [Sodium Phosphate Tribasic.12H2O] | 36
O.O.O.O.O.O.O.O=P([O-])([O-])O.[Na+].[Na+] [Sodium Phosphate Dibasic.7H2O] | 31
